Measurements as given in patent publication US12295964B2, “Treating pain associated with chemotherapy-induced peripheral neuropathy” (MEDICON PHARMACEUTICALS, INC., priority 2021, dated 2025).
Values joined by “and” are separate entries in the source; they are usually repeats but may differ in a detail not shown here. Identical values can stand only once. Like-named read-outs stand apart in the source and are kept apart here.

Legend:
[1] = test system: paclitaxel-induced CIPN in C57/BL mice; experiment: Prevention of neuropathic pain in paclitaxel mouse model of CIPN, paw withdrawal threshold (von Frey); format: in vivo; conditions: day 6 after first paclitaxel (10 mg/kg ip daily x5); PS 8% hydrogel topically to both hind paws 3 times a day for 7 days, started 2 days before paclitaxel
Description: In order to establish CIPN, paclitaxel is administered at 10 mg/kg intraperitoneally into C57/BL mice. […] This dosing regimen of paclitaxel produces pain associated with CIPN with time courses that are similar to those of pain after paclitaxel administration in cancer patients.
The first doses were administered 2 days prior to the first administration of paclitaxel.
In particular, a simplified up-down method for estimating paw withdrawal threshold (PWT) using von Frey filaments was used (as described in Bonin et al., Molecular Pain (2014); 10(26):1-10)). The results of the PWT test are expressed as force applied (gm).

[2] = test system: paclitaxel-induced CIPN in mice; experiment: Cold allodynia (acetone test) in paclitaxel-induced CIPN; format: in vivo, mouse
Description: For cold allodynia, mice with paclitaxel-induced CIPN were treated with PS 5% or vehicle for 15 days after the induction of CIPN. The acetone test was used. Briefly, acetone was applied onto the plantar surface of each hind paw. The time each mouse spent licking, lifting, and/or shaking the hind paw recorded over 60 seconds was the score for cold allodynia. Measurements were performed on day-8 (before the first paclitaxel injection), the day of starting treatment (day 0) and then on day 15.

[3] = test system: paclitaxel-induced CIPN in C57BL/6J mice; experiment: Treatment of paclitaxel-induced CIPN, mechanical allodynia (von Frey test)
Description: Adult male C57BL/6J mice, 8 weeks of age at the beginning of the experiments and weighing 20-30 g, were purchased from The Jackson Laboratory (Bar Harbor, ME). Mice were housed in an AAALAC-accredited facility in groups of four. Food and water were available ad libitum. The mice in each cage were randomly allocated to treatment groups. All studies were conducted by experimenters blinded to the identity of the treatment groups. Experiments were performed during the light cycle (7:00 am to 7:00 pm) and animals were euthanized with CO2 asphyxiation. Studies were approved by the relevant Institutional Animal Care and Use Committee and followed the National Institutes of Health Guidelines for the Care and Use of Laboratory Animals. Animal studies are reported in compliance with the ARRIVE guidelines.
CIPN was induced in mice with three different chemotherapeutic compounds using established protocols (Carozzi et al., Exp Neurol (2010); 226:301-309; Currie et al., PLOS Biol (2019); 17:e3000243; Eldridge et al., Toxicol Pathol (2020); 48:190-201). Each of the three chemotherapeutic compounds were prepared and dosed as follows. • Paclitaxel: paclitaxel (purchased from MilliporeSigma (St. Louis, MO)) was dissolved in a mixture of 1 volume ethanol/1 volume Cremophor EL (EMD Millipore Corp, Burlington, MA)/18 volumes distilled water. Paclitaxel was administered as four intraperitoneal injections of 8 mg/kg paclitaxel (in a volume of 1 ml/100 g body weight) every other day, resulting in a cumulative dose of 32 mg/kg. • Oxaliplatin: Oxaliplatin was dissolved in ddH2O.
Mechanical allodynia was measured at the time points recorded in the figures.
Mechanical allodynia thresholds were determined using von Frey filaments according to an established method (Chaplan et al., J Neurosci Methods (1994); 53:55-63; Bagdas et al., Biochem Pharmacol (2015); 97:590-600). Briefly, mice were placed in a quiet room for 30 min and then were put in a Plexiglas cage with mesh metal flooring and allowed to acclimatise for 30 min before testing. A series of calibrated von Frey filaments (Stoelting, Wood Dale, IL) with incremental stiffness were applied perpendicularly to the paw with sufficient force to cause slight bending and held 2-3 s. This process was repeated at each level of stiffness 5 times, a few seconds apart. Paw withdrawn, licking or shaking were considered positive responses. The mechanical threshold, expressed as g, indicates the force of the von Frey filament to which the animal reacted.
Results are expressed as mean±SEM. […] Analysis of variance (ANOVA) tests were conducted and followed by the Bonferroni post hoc test. Differences were determined to be significant at P<0.05.

[4] = test system: paclitaxel-induced CIPN in C57BL/6J mice; experiment: Prevention of paclitaxel-induced CIPN pain, mechanical allodynia (von Frey test); conditions: for mechanical allodynia score, mean±SEM: day 10, PS 8% ointment to hind paws started 2 days before first paclitaxel (8 mg/kg ip every other day x4)
Description: In the prevention study depicted in FIG. 8, three of the four study groups of mice were treated with paclitaxel (one injection every other day for a total of four) while the fourth group received the solvent alone, serving as control.

[5] = test system: paclitaxel-induced CIPN in C57/BL/6J mice; experiment: Comparison with sulindac, lidocaine and pregabalin in paclitaxel CIPN, mechanical allodynia (PWT, von Frey)
[6] = PS and metabolites in proximal and distal half of the sciatic nerve of mice with paclitaxel-induced PN; format: in vivo, mouse; conditions: for concentration at 30 min: mean ± SEM
Description: In a separate experiment we studied 8 mice with paclitaxel-induced PN treated with PS 8% ointment 3×/d for 2 wks. Mice were euthanized as above 30 minutes after the last dose of PS. From these mice we harvested both sciatic nerves dividing each into proximal and distal halves, and combined the corresponding halves of every two animals for assay of drug levels.

[7] = Pharmacokinetics and biodistribution of topical PS in normal mice; format: in vivo, mouse; conditions: for Cmax: read-out: Cmax, μM mean ± SEM
Description: PS 8% ointment was applied topically to each hind paw (50 μl per paw) with gentle rubbing. At 0.5, 1, 3, 5, 12, 18, and 24 h, mice (n=4-5 mice/time point) were euthanized with CO2 inhalation. Blood was drawn immediately after death. Tissues, including paw skin, paw muscle, leg muscle, the sciatic nerve and lumbar DRG bilaterally were dissected quickly, immediately frozen in liquid nitrogen and stored at −80° C. until analyzed.

CIPN model = conditions: Hidaka et al. (2009); cited from earlier work
[8] = test system: oxaliplatin-induced CIPN in C57BL/6J mice; experiment: Treatment of oxaliplatin-induced CIPN, mechanical allodynia (von Frey test); format: in vivo, mouse
Description: (§1) Food and water were available ad libitum.
(§2) Results are expressed as mean±SEM. […] Non-compartmental analyses were employed.

[9] = test system: vincristine-induced CIPN in C57BL/6J mice; experiment: Treatment of vincristine-induced CIPN, mechanical allodynia (von Frey test); format: in vivo, mouse
Description: as §1, §2

[10] = test system: paclitaxel-induced CIPN in C57/BL mice; experiment: Treatment of established neuropathic pain in paclitaxel mouse model of CIPN, PWT (von Frey); format: in vivo; conditions: day 10, about 30 min after last application; paclitaxel 10 mg/kg ip daily x3; PS 8% hydrogel to both hind paws 3 times a day for 10 days, started 2 days after last paclitaxel
Description: The first doses were administered 2 days after the last administration of paclitaxel.
The data is expressed as percent change from the respective baseline value.

mice = experiment: Safety of PS ointment during the CIPN treatment studies; format: in vivo, mouse; conditions: PS ointment thrice daily to hind paws for up to 22 days
Description: This finding is in keeping with the known safety profile of PS.

COX-1 = COX-1 (Homo sapiens, UniProt P23219); conditions: cited from earlier work
COX-1, sequence (P23219 24-599): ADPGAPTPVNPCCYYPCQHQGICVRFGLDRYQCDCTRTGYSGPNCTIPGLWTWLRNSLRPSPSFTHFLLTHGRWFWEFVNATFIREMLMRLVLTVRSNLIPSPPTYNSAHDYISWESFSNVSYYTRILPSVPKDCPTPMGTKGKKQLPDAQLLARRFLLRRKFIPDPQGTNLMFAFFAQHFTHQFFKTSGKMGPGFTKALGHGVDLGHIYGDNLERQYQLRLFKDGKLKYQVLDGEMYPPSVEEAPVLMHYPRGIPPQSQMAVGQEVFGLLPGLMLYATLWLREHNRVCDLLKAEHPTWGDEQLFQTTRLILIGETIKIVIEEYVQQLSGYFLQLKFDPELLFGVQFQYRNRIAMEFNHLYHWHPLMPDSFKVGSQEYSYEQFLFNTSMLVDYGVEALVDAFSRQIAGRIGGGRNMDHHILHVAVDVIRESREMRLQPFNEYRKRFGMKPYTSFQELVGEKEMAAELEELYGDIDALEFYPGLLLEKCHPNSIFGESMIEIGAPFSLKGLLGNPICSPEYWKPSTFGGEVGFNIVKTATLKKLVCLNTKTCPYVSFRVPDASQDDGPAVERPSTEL

COX-2 = target: T1, COX-2 (Homo sapiens, UniProt P35354); conditions: cited from earlier work
T1 sequence (P35354 18-604): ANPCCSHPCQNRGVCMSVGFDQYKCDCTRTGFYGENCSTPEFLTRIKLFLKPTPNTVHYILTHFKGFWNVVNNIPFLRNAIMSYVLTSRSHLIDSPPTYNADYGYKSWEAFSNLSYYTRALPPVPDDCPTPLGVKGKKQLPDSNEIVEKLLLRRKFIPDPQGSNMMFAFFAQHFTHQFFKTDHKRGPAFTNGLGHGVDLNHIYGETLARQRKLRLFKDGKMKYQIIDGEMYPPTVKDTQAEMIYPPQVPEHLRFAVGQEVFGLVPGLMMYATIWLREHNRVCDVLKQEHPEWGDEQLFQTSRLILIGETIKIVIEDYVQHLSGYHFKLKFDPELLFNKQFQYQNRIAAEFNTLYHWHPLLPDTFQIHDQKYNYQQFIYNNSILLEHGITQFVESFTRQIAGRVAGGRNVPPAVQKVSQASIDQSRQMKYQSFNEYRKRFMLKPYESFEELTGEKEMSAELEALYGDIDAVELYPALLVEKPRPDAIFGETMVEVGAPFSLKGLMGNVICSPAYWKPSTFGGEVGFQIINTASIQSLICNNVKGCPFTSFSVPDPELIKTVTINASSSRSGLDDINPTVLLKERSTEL

[11] = mouse, in vivo, Distal half of the sciatic nerve
[12] = mouse, in vivo, Proximal half of the sciatic nerve, μM
[13] = 30 min after last dose, PS 8% ointment 3x/d for 2 wks
[14] = DRG (dorsal root ganglia), normal mice, PS 8% ointment topically 50 μl per hind paw
[15] = SN (sciatic nerve), normal mice, PS 8% ointment topically 50 μl per hind paw
[16] = leg muscle, normal mice, PS 8% ointment topically 50 μl per hind paw
[17] = paw muscle, normal mice, PS 8% ointment topically 50 μl per hind paw
[18] = paw skin, normal mice, PS 8% ointment topically 50 μl per hind paw
[19] = 30 min after last dose, mice with paclitaxel-induced PN, PS 8% ointment 3x/d for 2 wks

CC(=O)O[C@H]1C(=O)[C@@]2(C)[C@H]([C@H](OC(=O)c3ccccc3)[C@]3(O)C[C@H](OC(=O)[C@H](O)[C@@H](NC(=O)c4ccccc4)c4ccccc4)C(C)=C1C3(C)C)[C@]1(OC(C)=O)CO[C@@H]1C[C@@H]2O [Paclitaxel, paclitaxel, reference compound]
PWT, gm Mean ± SEM [1]: 0.3 ± 0.01 gm
cold allodynia score (acetone test), Mean±SEM ([2]; after paclitaxel treatment (4.5±0.24 sec before)): 7.1 ± 0.4 s
reduction of mechanical allodynia scores by the chemotherapeutic ([3]; paclitaxel administered over 12 days, vs baseline): ~85%
mechanical allodynia score lower than solvent control ([4]; day 10, paclitaxel group vs control): 53%
mechanical allodynia score, mean±SEM [4]: 0.7 ± 0.17 g
mechanical allodynia score, mean±SEM ([5]; day 0, CIPN fully established after paclitaxel (1.83±0.14 g before paclitaxel)): 0.55 ± 0.05 g

CSc1ccc(/C=C2/C(C)=C(CC(=O)O)c3cc(F)ccc32)cc1 [Sulindac sulfide, sulindac sulfide]
Fold difference (distal vs proximal half of sciatic nerve) ([6]; mouse, in vivo, 30 min): 4.5-8.5
concentration at 30 min [6, 11]: 3.5 ± 1 µM
concentration at 30 min [6, 12]: 0 µM

CC1=C(CC(=O)O)c2cc(F)ccc2/C1=C\c1ccc(S(C)(=O)=O)cc1 [Sulindac sulfone, sulindac sulfone]
Distal half of the sciatic nerve, mean ± SEM ([6]; mouse, in vivo): 0.9 ± 0.2 µM
Proximal half of the sciatic nerve, μM, mean ± SEM ([6]; mouse, in vivo): 0.2 ± 0.08 µM

CC1=C(CC(=O)O)c2cc(F)ccc2/C1=C\c1ccc([S+](C)[O-])cc1 (stereo not drawn) [Sulindac, sulindac, reference compound]
sulindac levels relative to those of PS ([7]; all tissues except the sciatic nerve (higher) and DRG (equal), topical PS 8% ointment): around 25%
Fold difference (distal vs proximal half of sciatic nerve) [6, 13]: 8.5
concentration at 30 min [6, 11]: 3.4 ± 1.1 µM
concentration at 30 min [6, 12]: 0.4 ± 0.03 µM

CCN(CC)CC(=O)Nc1c(C)cccc1C [lidocaine, reference compound]
PWT, g Mean ± SEM ([5]; 5% lidocaine cream applied once to both hind paws 30 minutes before measurement): 1.48 ± 0.12 g

CC(C(=O)O)c1ccc(CC2CCCC2=O)cc1 (stereo not drawn) [loxoprofen sodium]
reducing pain signalling in CIPN model (CIPN model): ineffective

O=C1[O][Pt]2([NH][C@@H]3CCCC[C@H]3[NH]2)[O]C1=O [oxaliplatin]
reduction of allodynia score by the chemotherapeutic ([8]; at day 0, two study groups respectively): 65% and 56%

CC[C@]1(O)C[C@H]2CN(CCc3c([nH]c4ccccc34)[C@@](C(=O)OC)(c3cc4c(cc3OC)N(C=O)[C@H]3[C@@](O)(C(=O)OC)[C@H](OC(C)=O)[C@]5(CC)C=CCN6CC[C@]43[C@@H]65)C2)C1 [vincristine, reference compound]
mechanical allodynia score, mean±SEM ([9]; day 0, after vincristine, all three groups): 0.7 ± 0.07 g
reduction of mechanical allodynia score by the chemotherapeutic ([9]; day -7 vs day 0, three vincristine groups): 61%-65%

phosphosulindac [PS]
PWT, gm Mean ± SEM [1]: 0.4 ± 0.01 gm
PWT, % baseline Mean ± SEM [10]: 102.55 ± 4.92 % baseline
increase of allodynia score compared to day 0 ([9]; PS treatment for 16 days): 114%
mechanical allodynia score, mean±SEM ([9]; day 16, PS 8% ointment to hind paws 3x/day (vincristine alone group: no topical treatment)): 1.5 ± 0.09 g
mechanical allodynia score, mean±SEM ([8]; after PS 8% ointment 3x/day (day 22) vs day -15 baseline): 1.8 ± 0.09 g
AUC0-24 h [7, 14]: 4.5 µM·h
Tmax [7, 14]: 18 h
Cmax [7, 14]: 0.3 ± 0.1 µM
AUC0-24 h [7, 15]: 12.0 µM·h
T1/2, h [7, 15]: 57.4 h
Tmax [7, 15]: 0.5 h
Cmax [7, 15]: 0.9 ± 0.1 µM
presence in the systemic circulation ([7]; blood after topical PS 8% ointment, limit of quantitation 0.1 μM for PS): no PS was detected
AUC0-24 h [7, 16]: 171.6 µM·h
T1/2, h [7, 16]: 20.6 h
Tmax [7, 16]: 0.5 h
Cmax [7, 16]: 35 ± 3.6 µM
AUC0-24 h [7, 17]: 411.2 µM·h
T1/2, h [7, 17]: 11.4 h
Tmax [7, 17]: 0.5 h
Cmax [7, 17]: 102 ± 4.6 µM
AUC0-24 h, μM · h [7, 18]: 1,609.8 μM · h
T1/2, h [7, 18]: 16.1 h
Tmax [7, 18]: 0.5 h
Cmax [7, 18]: 195 ± 5.3 µM
t1/2 of the skin and the muscles ([7]; range over paw skin, paw muscle, leg muscle, topical PS 8% ointment): 11.4 to 20.6 h
Fold difference (distal vs proximal half of sciatic nerve) [6, 13]: 18.5 and 18.9
Distal half of the sciatic nerve, mean ± SEM [6, 19]: 17 ± 5.1 µM
Proximal half of the sciatic nerve, μM, mean ± SEM [6, 19]: 0.9 ± 0.3 µM
cold allodynia score (acetone test), Mean±SEM ([2]; PS 5% for 15 days after induction of CIPN, day 15, vehicle 9.3±0.7): 3.1 ± 0.4 s
topical or systemic side effects (mice): no topical or systemic side effects
inhibition of COX-1 expression (COX-1): does not inhibit
inhibition of COX-2 expression (COX-2): does not inhibit
mechanical allodynia score, mean±SEM ([3]; day 0 (initiation of topical treatment, CIPN established)): 0.79 ± 0.08 g
mechanical allodynia score, mean±SEM ([3]; day 5, PS 8% ointment to hind paws 3x/day): 1.17 ± 0.07 g
mechanical allodynia score, mean±SEM ([3]; day 16, PS 8% ointment to hind paws 3x/day (paclitaxel only group: no topical treatment)): 2.49 ± 0.18 g
topical or systemic side effects ([4]; PS ointment, prevention study): no topical or systemic side effects
mechanical allodynia score, mean±SEM [4]: 1.2 ± 0.15 g
PWT, g Mean ± SEM ([5]; PS 1.2% to both hind paws 3 times a day from day 0, measured day 14): 0.98 ± 0.06 g
PWT, g Mean ± SEM ([5]; PS hydrogel 5% to both hind paws 3 times a day from day 0, measured day 14): 1.24 ± 0.07 g
